# Test results reported in PubChem BioAssay AID1056 (Sanford-Burnham Center for Chemical Genomics, 2008).
# Target: Alkaline phosphatase, tissue-nonspecific isozyme (Homo sapiens) (UniProt P05186)
# Test: human TNAP enzyme inhibitors, SAR follow-up, biochemical, luminescent, dose response (AID 1056)
# Conditions: purified human TNAP, luminescent substrate read-out
row,Structure (SMILES),IC50 [nM]
1,CN(C)C(=O)c1cc(-c2ccc(Cl)cc2Cl)n[nH]1,119
2,O=C(c1cc(-c2cc(F)c(Cl)cc2Cl)n[nH]1)N(CCO)CCO,127
3,CN(C)C(=O)c1cc(-c2cc(F)c(Cl)cc2Cl)n[nH]1,324
4,CCOc1cc(C)c(Cl)cc1S(=O)(=O)Nc1cccnc1,691
5,COc1ccc(F)cc1S(=O)(=O)Nc1cccnc1,1290
6,COc1cc(S(=O)(=O)Nc2cccnc2)c(OC)cc1Br,1550
7,O=C(NCCCO)c1cc(-c2ccc(Cl)cc2Cl)n[nH]1,31.3
8,CC(C)CNC(=O)c1cc(-c2ccc(Cl)cc2Cl)n[nH]1,81.5
9,COc1ccc(OC)c(S(=O)(=O)Nc2cccnc2)c1,1060
10,COCCNC(=O)c1cc(-c2ccc(Cl)cc2Cl)n[nH]1,46.4
11,O=C(NCCCO)c1cc(-c2cc(F)c(Cl)cc2Cl)n[nH]1,55.8
12,O=C(Cn1cnc(Br)c1)c1ccc(O)c(O)c1,47500
13,O=C(NCCO)c1cc(-c2cc(F)c(F)cc2F)n[nH]1,134
14,O=C(NCCO)c1cc(-c2ccc(Cl)cc2Cl)n[nH]1,44.4
15,CC(C)(C)NC(=O)c1cc(-c2ccc(Cl)cc2Cl)n[nH]1,398
16,COc1cc(S(=O)(=O)Nc2cccnc2)c(OC)cc1Cl,1130
17,O=C(c1cc(-c2ccc(Cl)cc2Cl)n[nH]1)N1CCCCCC1,1450
18,O=C(NCCCCO)c1cc(-c2ccc(Cl)cc2Cl)n[nH]1,34.5
19,COc1cc(C)c(Cl)cc1S(=O)(=O)Nc1cccnc1,511
20,COc1cc(C)c(C)cc1S(=O)(=O)Nc1cccnc1,1680
21,CCOc1ccc(Cl)cc1S(=O)(=O)Nc1cccnc1,537
22,Cc1cn(CC(=O)c2ccc(O)c(O)c2)cn1,41100
23,CC(C)NC(=O)c1cc(-c2ccc(Cl)cc2Cl)n[nH]1,51.1
24,CC(C)CCNC(=O)c1cc(-c2ccc(Cl)cc2Cl)n[nH]1,459
25,COc1cc(S(=O)(=O)Nc2cccnc2)c(OC)cc1C,1490
26,CC(C)NC(=O)c1cc(-c2cc(F)c(Cl)cc2Cl)n[nH]1,4850
27,O=C(NCCO)c1cc(-c2cc(F)c(Cl)cc2Cl)n[nH]1,100
28,CCN(CC)C(=O)c1cc(-c2ccc(Cl)cc2Cl)n[nH]1,285
29,COc1ccc2c(c1OC)C(=O)OC2CC(=O)c1ccc(O)c(O)c1 (stereo not given),29200

# Continued, values first:
row,IC50 [nM],Structure (SMILES)
1,828,CN1CCN(C(=O)c2cc(-c3ccc(Cl)cc3Cl)n[nH]2)CC1
2,488,CCN1CCN(C(=O)c2cc(-c3ccc(Cl)cc3Cl)n[nH]2)CC1
3,35,O=C(NCCO)c1cc(-c2ccc(F)cc2F)n[nH]1
4,4680,O=C1C2CC=CCC2C(=O)N1c1n[nH]c(-c2ccco2)n1 (stereo not given)
5,25800,COc1cccc(S(=O)(=O)Nc2cnc3ccccc3c2)c1
6,30600,O=C1C2C3C=CC(C3)C2C(=O)N1c1n[nH]c(CCc2ccccc2)n1 (stereo not given)
7,8740,Cc1nc(Br)cn1CC(=O)c1ccc(O)c(O)c1
8,375,O=C(c1cc(-c2ccc(Cl)cc2Cl)n[nH]1)N1CCN(CCO)CC1
9,649,COc1ccc(C)cc1S(=O)(=O)Nc1cnc2ccccc2c1
10,93800,O=C(CNc1nc2ccccc2[nH]1)c1ccc(O)c(O)c1
11,46.8,O=C(c1cc(-c2ccc(Cl)cc2Cl)n[nH]1)N(CCO)CCO
12,27900,O=C1C2CC=CCC2C(=O)N1c1n[nH]c(CCc2ccccc2)n1 (stereo not given)
13,670,O=C1c2ccccc2C(=O)N1c1n[nH]c(Cc2ccccc2)n1
14,574,O=C(c1cc(-c2ccc(Cl)cc2Cl)n[nH]1)N1CCOCC1
15,10500,O=C1C2CC=CCC2C(=O)N1c1n[nH]c(-c2cccnc2)n1 (stereo not given)
16,1570,O=C1C2CCCCC2C(=O)N1c1n[nH]c(Cc2ccccc2)n1 (stereo not given)
